# According to patent US11623940B2, “Methods of nucleic acid synthesis comprising polyphosphate containing species” (Nuclera Nucleics Ltd., priority 2017, dated 2023):
# “Also recorded” adds a separate entry of the source.
# Tests used:
# [1] = system: terminal transferase; experiment: Terminal transferase-mediated addition of capping polyphosphate species to initiator strand (denaturing polyacrylamide gel); assay type: biochemical; details: for conversion of initiator strand of length N by terminal transferase-mediated addition: FIG. 1 lanes 2 and 3
# Source text: (§1) FIG. 1: Incorporation of dideoxynucleoside triphosphates by a terminal transferase prevents subsequent DNA synthesis. Lane 1: initiator sequence; Lane 2: dideoxyadenosine triphosphate addition; Lane 3: dideoxythymidine triphosphate addition; Lanes 4-6: duplicates of lanes 1-3 exposed to dCTP tailing conditions; Lane 7: initiator sequence. While dCTP tailing leads to the formation of a range of higher molecular weight products (Lane 4), prior treatment with a terminal transferase and dideoxynucleoside triphosphate prevents the formation of such higher molecular weight species (Lanes 5 and 6).
# FIG. 2: Incorporation of tripolyphosphate by a terminal transferase prevents subsequent DNA synthesis. Lane 1: initiator sequence; Lane 2: 1 mM sodium tripolyphosphate; Lane 3: 10 mM sodium tripolyphosphate; Lane 4: 50 mM sodium tripolyphosphate; Lanes 5-7: duplicates of lanes 2-4 exposed to dCTP tailing conditions. Reaction products were analysed by denaturing polyacrylamide gel and visualized by an internal FAM dye.
# (§2) Data is presented herein which exemplifies the utility of dideoxynucleoside triphosphates as a capping agent by incorporating a dideoxynucleotide using a terminal transferase, and so preventing polymerization of deoxycytidine triphosphate (dCTP) in a subsequent step with terminal transferase (FIG. 1). […] When the initiator strand is exposed to terminal transferase in the presence of dCTP, many higher molecular weight products are formed (a smear on the gel) due to the uncontrolled incorporation of dCTP into the initiator strand (lane 4). […] Lane 7 is a duplicate of lane 1.
# (§3) Data is presented herein which exemplifies the utility of tripolyphosphate as a capping agent by incorporating a phosphate moiety on the 3′-terminus of an oligonucleotide using a terminal transferase, and so preventing polymerization of dCTP in a subsequent step with terminal transferase (FIG. 2). […] The new species migrates faster on the polyacrylamide gel due to the additional charge presented by the new 3′-phosphate moiety. […] Following incubation with the terminal transferase and tripolyphosphate, the mixture was removed. The initiator strand was then incubated with a terminal transferase and canonical dCTP. If a free 3′-hydroxyl is present, terminal transferase will add many dCTP in an uncontrolled fashion to generate higher molecular weight oligonucleotides.
# [2] = system: terminal transferase; experiment: dCTP tailing with terminal transferase after capping pre-treatment of initiator strand (gel); assay type: biochemical; details: for incorporation of dCTP into pre-treated initiator strand when exposed to terminal transferase and dCTP: FIG. 1 lanes 5 and 6, pre-treated with dideoxynucleoside triphosphate
# Source text: as §1
# FIG. 2: Incorporation of tripolyphosphate by a terminal transferase prevents subsequent DNA synthesis. […] Reaction products were analysed by denaturing polyacrylamide gel and visualized by an internal FAM dye.
# as §2, §3
Compound,"terminal transferase mediated 3′-phosphorylation of initiator strand ([1]; 1 mM tripolyphosphate, FIG. 2 lane 2)","terminal transferase mediated 3′-phosphorylation of initiator strand ([1]; 5 mM tripolyphosphate, FIG. 2 lane 3)","terminal transferase mediated 3′-phosphorylation of initiator sequence ([1]; 10 mM sodium tripolyphosphate, FIG. 2 lane 3 (figure legend))","terminal transferase mediated 3′-phosphorylation of initiator strand ([1]; 50 mM tripolyphosphate, FIG. 2 lane 4)","dCTP polymerization by terminal transferase after capping pre-incubation ([2]; pre-incubation with 1 mM tripolyphosphate, FIG. 2 lane 5)","dCTP polymerization by terminal transferase after capping pre-incubation ([2]; pre-incubation with 5 mM tripolyphosphate, FIG. 2 lane 6)","dCTP polymerisation by terminal transferase after capping pre-incubation ([2]; pre-incubation with 10 mM sodium tripolyphosphate, FIG. 2 lane 6 (figure legend))","dCTP polymerization by terminal transferase after capping pre-incubation ([2]; pre-incubation with 50 mM tripolyphosphate, FIG. 2 lane 7)",conversion of initiator strand of length N by terminal transferase-mediated addition [1],incorporation of dCTP into pre-treated initiator strand when exposed to terminal transferase and dCTP [2]
sodium tripolyphosphate,partially converted to a new 3′-phosphorylated species; also recorded: converted to a 3′-phosphorylated initiator sequence,partially converted to a new 3′-phosphorylated species,converted to a 3′-phosphorylated initiator sequence,does not proceed,largely prevents this polymerization; also recorded: resistant to enzyme mediated DNA polymerisation,largely prevents this polymerization,resistant to enzyme mediated DNA polymerisation,complete polymerization to higher molecular weight species,–,–
"Nc1ncnc2c1ncn2[C@H]1CC[C@@H](COP(=O)(O)OP(=O)(O)OP(=O)(O)O)O1 [ddATP, dideoxyadenosine triphosphate]",–,–,–,–,–,–,–,–,converted to an N+1 species,resistant to incorporation of dCTP
dideoxythymidine triphosphate [ddTTP],–,–,–,–,–,–,–,–,converted to an N+1 species,resistant to incorporation of dCTP
